{"source": "patent US11267825B2", "about": "(AICURIS GMBH & CO. KG, priority 2017, dated 2022)", "key": {"HBV core protein": {"biological_target": "HBV core protein (UniProt P03146)", "sequence (P03146 whole entry, looked up)": "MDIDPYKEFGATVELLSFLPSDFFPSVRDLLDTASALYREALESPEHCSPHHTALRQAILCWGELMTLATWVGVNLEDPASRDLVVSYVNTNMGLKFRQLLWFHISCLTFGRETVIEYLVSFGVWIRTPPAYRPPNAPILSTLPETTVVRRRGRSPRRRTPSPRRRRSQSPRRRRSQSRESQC", "type": "biochemical", "conditions": "read-out: Assembly Activity (IC50); BODIPY-FL labelled core protein, assembly started with NaCl, read after 6 min", "outline": "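Fluorescence-quenching assembly assay using E. coli-expressed core protein 1–149 plus Cys150, labelled with BODIPY-FL maleimide, at 1.0–2.0 μM in 50 mM HEPES pH 7.5, 0.5% DMSO. Assembly started with NaCl to […]; fluorescence (ex 477/em 525 nm) read after 6 min. EC50 by non-linear regression, 8-point 0.5-log dilutions.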"}, "HBV": {"test_system": "HBV", "assay": "Determination of HBV DNA from the supernatants of HepAD38 cells (anti-HBV activity)", "type": "cell-based, hepatitis B virus", "conditions": "Hepatitis B virus, 144 h; HBV DNA in HepAD38 supernatant at day 6; read-out: Cell Activity (EC50)", "outline": "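HepAD38 cells (60,000/well) were treated with half-log compound dilutions in tetracycline-free medium to induce HBV production. On day 6, HBV DNA was purified from filtered supernatant and quantified by real-time PCR against plasmid standards. EC50 values came from non-linear regression of relative copy numbers, typically from three experiments in triplicate.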"}}}
{"smiles": "O=C(c1cc2ccccc2[nH]1)N1CCc2nc(NCCCO)sc2C1", "note": "[Example 129, 3-{[5-(1H-indole-2-carbonyl)-4H,5H,6H,7H-[1,3]thiazolo[5,4-c]pyridin-2-yl]amino}propan-1-ol]", "values": [{"measurement": "IC50", "setting": "HBV core protein", "result": "< 5", "unit": "µM"}, {"measurement": "EC50", "setting": "HBV", "result": "< 1", "unit": "µM"}]}
{"smiles": "O=C(c1cc2c(F)c(F)ccc2[nH]1)N1CCc2nc(NCC3CCOC3)sc2C1", "note": "(centres unmarked) [Example 112, 5-(4,5-difluoro-1H-indole-2-carbonyl)-N-[(oxolan-3-yl)methyl]-4H,5H,6H,7H-[1,3]thiazolo[5,4-c]pyridin-2-amine]", "values": [{"measurement": "IC50", "setting": "HBV core protein", "result": "< 5", "unit": "µM"}, {"measurement": "EC50", "setting": "HBV", "result": "< 1", "unit": "µM"}]}
{"smiles": "Cc1cccc2[nH]c(C(=O)N3CCc4nc(NC5CCOC5)sc4C3)cc12", "note": "(centres unmarked) [Example 76, 5-(4-methyl-1H-indole-2-carbonyl)-N-(oxolan-3-yl)-4H,5H,6H,7H-[1,3]thiazolo[5,4-c]pyridin-2-amine]", "values": [{"measurement": "IC50", "setting": "HBV core protein", "result": "< 5", "unit": "µM"}, {"measurement": "EC50", "setting": "HBV", "result": "< 1", "unit": "µM"}]}
{"smiles": "CCc1cc(F)cc2[nH]c(C(=O)N3CCc4nc(NCC5(O)CCC5)sc4C3)cc12", "note": "[Example 363, 1-({[5-(4-ethyl-6-fluoro-1H-indole-2-carbonyl)-4H,5H,6H,7H-[1,3]thiazolo[5,4-c]pyridin-2-yl]amino}methyl)cyclobutan-1-ol]", "values": [{"measurement": "IC50", "setting": "HBV core protein", "result": "< 5", "unit": "µM"}, {"measurement": "EC50", "setting": "HBV", "result": "< 1", "unit": "µM"}]}
{"smiles": "O=C(c1cc2ccccc2[nH]1)N1CCc2nc(NCCN3CCOCC3)sc2C1", "note": "[Example 36, 5-(1H-indole-2-carbonyl)-N-[2-(morpholin-4-yl)ethyl]-4H,5H,6H,7H-[1,3]thiazolo[5,4-c]pyridin-2-amine]", "values": [{"measurement": "IC50", "setting": "HBV core protein", "result": "5 to 10", "unit": "µM"}, {"measurement": "EC50", "setting": "HBV", "result": "1 to 10", "unit": "µM"}]}
{"smiles": "Nc1nc2c(s1)CN(C(=O)c1cc3cccc(OC(F)F)c3[nH]1)CC2", "note": "[Example 173, 5-(7-(difluoromethoxy)-1H-indole-2-carbonyl)-4H,5H,6H,7H-[1,3]thiazolo[5,4-c]pyridin-2-amine]", "values": [{"measurement": "IC50", "setting": "HBV core protein", "result": "< 5", "unit": "µM"}, {"measurement": "EC50", "setting": "HBV", "result": "1 to 10", "unit": "µM"}]}
{"smiles": "Nc1nc2c(s1)CN(C(=O)c1cc3cc(Cl)ccc3[nH]1)CC2", "note": "[Example 155, 5-(5-chloro-1H-indole-2-carbonyl)-4H,5H,6H,7H-[1,3]thiazolo[5,4-c]pyridin-2-amine]", "values": [{"measurement": "IC50", "setting": "HBV core protein", "result": "< 5", "unit": "µM"}, {"measurement": "EC50", "setting": "HBV", "result": "1 to 10", "unit": "µM"}]}
{"smiles": "O=C1CC(C(=O)Nc2nc3c(s2)CN(C(=O)c2cc4ccccc4[nH]2)CC3)CCN1", "note": "(centres unmarked) [Example 412, N-[5-(1H-indole-2-carbonyl)-4H,5H,6H,7H-[1,3]thiazolo[5,4-c]pyridin-2-yl]-2-oxopiperidine-4-carboxamide]", "values": [{"measurement": "IC50", "setting": "HBV core protein", "result": "< 5", "unit": "µM"}, {"measurement": "EC50", "setting": "HBV", "result": "< 1", "unit": "µM"}]}
{"smiles": "CCOc1nc2c(s1)CN(C(=O)c1cc3ccccc3[nH]1)CC2", "note": "[Example 152, 2-{2-ethoxy-4H,5H,6H,7H-[1,3]thiazolo[5,4-c]pyridine-5-carbonyl}-1H-indole]", "values": [{"measurement": "IC50", "setting": "HBV core protein", "result": "< 100", "unit": "µM"}, {"measurement": "EC50", "setting": "HBV", "result": "1 to 10", "unit": "µM"}]}
{"smiles": "CC(Nc1nc2c(s1)CN(C(=O)c1cc3ccccc3[nH]1)CC2)C(F)(F)F", "note": "(centres unmarked) [Example 22, 5-(1H-indole-2-carbonyl)-N-(1,1,1-trifluoropropan-2-yl)-4H,5H,6H,7H-[1,3]thiazolo[5,4-c]pyridin-2-amine]", "values": [{"measurement": "IC50", "setting": "HBV core protein", "result": "< 100", "unit": "µM"}, {"measurement": "EC50", "setting": "HBV", "result": "< 1", "unit": "µM"}]}
{"smiles": "O=C1CCC(CNc2nc3c(s2)CN(C(=O)c2cc4ccccc4[nH]2)CC3)N1", "note": "(centres unmarked) [Example 404, 5-({[5-(1H-indole-2-carbonyl)-4H,5H,6H,7H-[1,3]thiazolo[5,4-c]pyridin-2-yl]amino}methyl)pyrrolidin-2-one]", "values": [{"measurement": "IC50", "setting": "HBV core protein", "result": "< 5", "unit": "µM"}, {"measurement": "EC50", "setting": "HBV", "result": "< 1", "unit": "µM"}]}
{"smiles": "Nc1nc2c(s1)CN(C(=O)c1cc3ccc(Cl)cc3[nH]1)CC2", "note": "[Example 156, 5-(6-chloro-1H-indole-2-carbonyl)-4H,5H,6H,7H-[1,3]thiazolo[5,4-c]pyridin-2-amine]", "values": [{"measurement": "IC50", "setting": "HBV core protein", "result": "< 5", "unit": "µM"}, {"measurement": "EC50", "setting": "HBV", "result": "< 1", "unit": "µM"}]}
{"smiles": "Nc1nc2c(s1)CN(C(=O)c1cc3cccc(Br)c3[nH]1)CC2", "note": "[Example 171, 5-(7-bromo-1H-indole-2-carbonyl)-4H,5H,6H,7H-[1,3]thiazolo[5,4-c]pyridin-2-amine]", "values": [{"measurement": "IC50", "setting": "HBV core protein", "result": "< 5", "unit": "µM"}, {"measurement": "EC50", "setting": "HBV", "result": "< 1", "unit": "µM"}]}
{"smiles": "CN1CCN(CCNc2nc3c(s2)CN(C(=O)c2cc4ccccc4[nH]2)CC3)CC1", "note": "[Example 181, 5-(1H-indole-2-carbonyl)-N-[2-(4-methylpiperazin-1-yl)ethyl]-4H,5H,6H,7H-[1,3]thiazolo[5,4-c]pyridin-2-amine]", "values": [{"measurement": "IC50", "setting": "HBV core protein", "result": "< 5", "unit": "µM"}, {"measurement": "EC50", "setting": "HBV", "result": "1 to 10", "unit": "µM"}]}
{"smiles": "CC1(Nc2nc3c(s2)CN(C(=O)c2cc4ccccc4[nH]2)CC3)CCOCC1", "note": "[Example 69, 5-(1H-indole-2-carbonyl)-N-(4-methyloxan-4-yl)-4H,5H,6H,7H-[1,3]thiazolo[5,4-c]pyridin-2-amine]", "values": [{"measurement": "IC50", "setting": "HBV core protein", "result": "< 5", "unit": "µM"}, {"measurement": "EC50", "setting": "HBV", "result": "< 1", "unit": "µM"}]}
{"smiles": "O=C(c1cc2ccccc2[nH]1)N1CCc2nc(NCC3COCCO3)sc2C1", "note": "(centres unmarked) [Example 66, N-[(1,4-dioxan-2-yl)methyl]-5-(1H-indole-2-carbonyl)-4H,5H,6H,7H-[1,3]thiazolo[5,4-c]pyridin-2-amine]", "values": [{"measurement": "IC50", "setting": "HBV core protein", "result": "< 5", "unit": "µM"}, {"measurement": "EC50", "setting": "HBV", "result": "< 1", "unit": "µM"}]}
{"smiles": "O=C(c1cc2ccccc2[nH]1)N1CCc2nc(NC[C@H]3CCCC[C@@H]3O)sc2C1", "note": "[Example 288, (1S,2R)-2-({[5-(1H-indole-2-carbonyl)-4H,5H,6H,7H-[1,3]thiazolo[5,4-c]pyridin-2-yl]amino}methyl)cyclohexan-1-ol]", "values": [{"measurement": "IC50", "setting": "HBV core protein", "result": "5 to 10", "unit": "µM"}, {"measurement": "EC50", "setting": "HBV", "result": "< 1", "unit": "µM"}]}
{"smiles": "O=C(c1cc2ccccc2[nH]1)N1CCc2nc(NCC3CCCO3)sc2C1", "note": "(centres unmarked) [Example 72, 5-(1H-indole-2-carbonyl)-N-[(oxolan-2-yl)methyl]-4H,5H,6H,7H-[1,3]thiazolo[5,4-c]pyridin-2-amine]", "values": [{"measurement": "IC50", "setting": "HBV core protein", "result": "< 5", "unit": "µM"}, {"measurement": "EC50", "setting": "HBV", "result": "< 1", "unit": "µM"}]}
{"smiles": "Cc1ccc2[nH]c(C(=O)N3CCc4nc(N)sc4C3)cc2c1C", "note": "[Example 136, 5-(4,5-dimethyl-1H-indole-2-carbonyl)-4H,5H,6H,7H-[1,3]thiazolo[5,4-c]pyridin-2-amine]", "values": [{"measurement": "IC50", "setting": "HBV core protein", "result": "5 to 10", "unit": "µM"}, {"measurement": "EC50", "setting": "HBV", "result": "1 to 10", "unit": "µM"}]}
{"smiles": "CCc1cccc2[nH]c(C(=O)N3CCc4nc(NC(=O)C5CCOCC5)sc4C3)cc12", "note": "[Example 334, N-[5-(4-ethyl-1H-indole-2-carbonyl)-4H,5H,6H,7H-[1,3]thiazolo[5,4-c]pyridin-2-yl]oxane-4-carboxamide]", "values": [{"measurement": "IC50", "setting": "HBV core protein", "result": "< 5", "unit": "µM"}, {"measurement": "EC50", "setting": "HBV", "result": "< 1", "unit": "µM"}]}
{"smiles": "O=C(c1cc2ccccc2[nH]1)N1CCc2nc(NC(CO)CO)sc2C1", "note": "[Example 43, 2-{[5-(1H-indole-2-carbonyl)-4H,5H,6H,7H-[1,3]thiazolo[5,4-c]pyridin-2-yl]amino}propane-1,3-diol]", "values": [{"measurement": "IC50", "setting": "HBV core protein", "result": "< 5", "unit": "µM"}, {"measurement": "EC50", "setting": "HBV", "result": "< 1", "unit": "µM"}]}
{"smiles": "CCC(C)(CO)CNc1nc2c(s1)CN(C(=O)c1cc3ccccc3[nH]1)CC2", "note": "(centres unmarked) [Example 216, 2-({[5-(1H-indole-2-carbonyl)-4H,5H,6H,7H-[1,3]thiazolo[5,4-c]pyridin-2-yl]amino}methyl)-2-methylbutan-1-ol]", "values": [{"measurement": "IC50", "setting": "HBV core protein", "result": "5 to 10", "unit": "µM"}, {"measurement": "EC50", "setting": "HBV", "result": "< 1", "unit": "µM"}]}
{"smiles": "O=C(c1cc2ccccc2[nH]1)N1CCc2nc(NCCCN3CCOCC3)sc2C1", "note": "[Example 73, 5-(1H-indole-2-carbonyl)-N-[3-(morpholin-4-yl)propyl]-4H,5H,6H,7H-[1,3]thiazolo[5,4-c]pyridin-2-amine]", "values": [{"measurement": "IC50", "setting": "HBV core protein", "result": "< 5", "unit": "µM"}, {"measurement": "EC50", "setting": "HBV", "result": "< 1", "unit": "µM"}]}
{"smiles": "O=C(c1cc2ccccc2[nH]1)N1CCc2ncsc2C1", "note": "[Example 200, 2-{4H,5H,6H,7H-[1,3]thiazolo[5,4-c]pyridine-5-carbonyl}-1H-indole]", "values": [{"measurement": "IC50", "setting": "HBV core protein", "result": "< 5", "unit": "µM"}, {"measurement": "EC50", "setting": "HBV", "result": "1 to 10", "unit": "µM"}]}
{"smiles": "CC(C)c1cccc2[nH]c(C(=O)N3CCc4nc(N)sc4C3)cc12", "note": "[Example 12, 5-[4-(propan-2-yl)-1H-indole-2-carbonyl]-4H,5H,6H,7H-[1,3]thiazolo[5,4-c]pyridin-2-amine]", "values": [{"measurement": "IC50", "setting": "HBV core protein", "result": "< 5", "unit": "µM"}, {"measurement": "EC50", "setting": "HBV", "result": "< 1", "unit": "µM"}]}
